≈ marks a conversion by molar mass, not a printed value.
Tests used:
Format in all cases: functional
Escherichia coli [1] = assay: Antibacterial activity against wild type Escherichia coli DK/pKK3535
Escherichia coli [2] = assay: Antibacterial activity against Escherichia coli SQ171/2058G harboring ribosomal A2058G mutant
Escherichia coli [3] = assay: Antibacterial activity against Escherichia coli DK/2058G harboring ribosomal A2058G mutant
Staphylococcus aureus [4] = assay: Antibacterial activity against Staphylococcus aureus UCN14 harboring ribosomal […] mutant
Staphylococcus aureus [5] = assay: Antibacterial activity against Staphylococcus aureus ATCC 33591 harboring ermA mutant

CC[C@H]1OC(=O)[C@H](C)C(=O)C[C@@H](O[C@@H]2O[C@H](C)C[C@H](N(C)C)[C@H]2O)[C@@](C)(OC)CCC(=O)C[C@@H]2N(CCCCn3cnc(-c4cccnc4)c3)C(=O)O[C@@]21C
MIC (Escherichia coli [1]): 32 µg/mL (≈ 41.6 µM)

CC[C@H]1OC(=O)[C@H](C)C(=O)[C@H](C)[C@@H](O[C@@H]2O[C@H](C)C[C@H](N(C)C)[C@H]2O)[C@](C)(OC)C[C@@H](C)C(=O)[C@H](C)[C@H]2N(CCCCn3cnc(-c4cccnc4)c3)C(=O)O[C@]12C [TELITHROMYCIN]
MIC (Escherichia coli [2]): > 512 µg/mL
MIC (Escherichia coli [1]): 0.5 µg/mL (≈ 0.616 µM)
MIC (Escherichia coli [3]): 1 µg/mL (≈ 1.23 µM)
MIC (Staphylococcus aureus [4]): > 256 µg/mL
MIC (Staphylococcus aureus [5]): > 128 µg/mL
